Assay results: the supplement of paper PMC9663587

Assays:
LEE011/Ribociclib = compound: CN(C)C(=O)c1cc2cnc(Nc3ccc(N4CCNCC4)cn3)nc2n1C1CCCC1 [LEE011/Ribociclib]; test: increase in dead-cell fraction, 72 h; higher = more death;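 also: breast cancer cell lines in 384-well plates, stained with Hoechst plus LIVE/DEAD far red dye and imaged, cells above an LDR intensity threshold counted dead, Hoechst-negative corpses included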
Neratinib/HKI272 = compound: CCOc1cc2ncc(C#N)c(Nc3ccc(OCc4ccccn4)c(Cl)c3)c2cc1NC(=O)/C=C/CN(C)C [Neratinib/HKI272]; test: as above
[1] = compound: CC(=O)c1c(C)c2cnc(Nc3ccc(N4CCNCC4)cn3)nc2n(C2CCCC2)c1=O; test: as above
[2] = compound: CCN1CCN(Cc2ccc(Nc3ncc(F)c(-c4cc(F)c5nc(C)n(C(C)C)c5c4)n3)nc2)CC1; test: as above
THZ1 = compound: CN(C)C/C=C/C(=O)Nc1ccc(C(=O)Nc2cccc(Nc3ncc(Cl)c(-c4c[nH]c5ccccc45)n3)c2)cc1 [THZ1]; test: as above
[3] = compound: CCc1cnn2c(NCc3ccc[n+]([O-])c3)cc(N3CCCC[C@H]3CCO)nc12; test: as above
BSJ-03-123 = compound: CC(=O)c1c(C)c2cnc(Nc3ccc(N4CCN(CCOCCOCCOCCNC(=O)COc5cccc6c5C(=O)N(C5CCC(=O)NC5=O)C6=O)CC4)cn3)nc2n(C2CCCC2)c1=O [BSJ-03-123]; test: as above
Flavopiridol = compound: CN1CC[C@H](c2c(O)cc(O)c3c(=O)cc(-c4ccccc4Cl)oc23)[C@H](O)C1 [Flavopiridol]; test: as above
Vorinostat = compound: O=C(CCCCCCC(=O)Nc1ccccc1)NO [Vorinostat]
[4] = compound: COc1ccc2c(c1)[C@]1(C[C@H]1c1ccc3c(/C=C/c4ccc(CN5C[C@@H](C)O[C@@H](C)C5)cc4)n[nH]c3c1)C(=O)N2
[5] = compound: CCN1CCN(Cc2ccc(Nc3ncc(F)c(-c4cc(F)c5nc(C)n(C(C)C)c5c4)n3)nc2)CC1
AZD6738 = compound: C[C@@H]1COCCN1c1cc(C2([S@](C)(=N)=O)CC2)nc(-c2cc[nH]c3nccc2-3)n1 [AZD6738]
[6] = compound: CCC1=CN=CN=C1N2CCN(CC2)CC3=NC4=C(N3)C=C(C=C4)C(F)(F)F
BSJ-01-175 = compound: CN(C)C/C=C/C(=O)Nc1ccc(O[C@@H]2CCC[C@@H](Nc3ncc(Cl)c(-c4c[nH]c5ccccc45)n3)C2)cc1 [BSJ-01-175]
AZD2014 = compound: CNC(=O)c1cccc(-c2ccc3c(N4CCOC[C@@H]4C)nc(N4CCOC[C@@H]4C)nc3n2)c1 [AZD2014]
Ipatasertib/GDC0068 = compound: CC(C)NC[C@@H](C(=O)N1CCN(c2ncnc3c2[C@H](C)C[C@H]3O)CC1)c1ccc(Cl)cc1 [Ipatasertib/GDC0068]
AZD7762 = compound: NC(=O)Nc1cc(-c2cccc(F)c2)sc1C(=O)N[C@H]1CCCNC1 [AZD7762]
Tivantinib/ARQ197 = compound: O=C1NC(=O)[C@@H](c2cn3c4c(cccc24)CCC3)[C@@H]1c1c[nH]c2ccccc12 [Tivantinib/ARQ197]
[7] = compound: CC(=O)Nc1cccc(-n2c(=O)n(C3CC3)c(=O)c3c(Nc4ccc(I)cc4F)n(C)c(=O)c(C)c32)c1
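For GR50, 72 h in this document: breast cancer and non-malignant breast epithelial cell lines, Deep Dye Drop or Dye Drop imaging, nine half-log doses, GR normalized to time-zero plates and DMSO-only controls.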

Cell Line: PDX1258
- increase in dead-cell fraction (LEE011/Ribociclib; 0.001 µM): -0.0077
- increase in dead-cell fraction (LEE011/Ribociclib; 0.003162 µM): 0.003
- increase in dead-cell fraction (LEE011/Ribociclib; 0.01 µM): -0.0078
- increase in dead-cell fraction (LEE011/Ribociclib; 0.03162 µM): -0.0297
- increase in dead-cell fraction (LEE011/Ribociclib; 0.1 µM): -0.0249
- increase in dead-cell fraction (LEE011/Ribociclib; 0.3162 µM): 0.0184
- increase in dead-cell fraction (LEE011/Ribociclib; 1 µM): -0.0032
- increase in dead-cell fraction (LEE011/Ribociclib; 3.162 µM): 0.0025
- increase in dead-cell fraction (LEE011/Ribociclib; 10 µM): 0.0066
- increase in dead-cell fraction (Neratinib/HKI272; 0.0003162 µM): 0.0046
- increase in dead-cell fraction (Neratinib/HKI272; 0.001 µM): 0.0126
- increase in dead-cell fraction (Neratinib/HKI272; 0.003162 µM): 0.0014
- increase in dead-cell fraction (Neratinib/HKI272; 0.01 µM): -0.0047
- increase in dead-cell fraction (Neratinib/HKI272; 0.03162 µM): 0.0084
- increase in dead-cell fraction (Neratinib/HKI272; 0.1 µM): 0.0159
- increase in dead-cell fraction (Neratinib/HKI272; 0.3162 µM): 0.0244
- increase in dead-cell fraction (Neratinib/HKI272; 1 µM): 0.0372
- increase in dead-cell fraction (Neratinib/HKI272; 3.162 µM): 0.118
- increase in dead-cell fraction ([1]; 0.0003162 µM): 0.0009
- increase in dead-cell fraction ([1]; 0.001 µM): -0.0052
- increase in dead-cell fraction ([1]; 0.003162 µM): -0.0004
- increase in dead-cell fraction ([1]; 0.01 µM): 0.0095
- increase in dead-cell fraction ([1]; 0.03162 µM): 0.0043
- increase in dead-cell fraction ([1]; 0.1 µM): 0.0062
- increase in dead-cell fraction ([1]; 0.3162 µM): -0.0028
- increase in dead-cell fraction ([1]; 1 µM): -0.0014
- increase in dead-cell fraction ([1]; 3.162 µM): 0.0061
- increase in dead-cell fraction ([2]; 0.001 µM): 0.0001
- increase in dead-cell fraction ([2]; 0.003162 µM): -0.0098
- increase in dead-cell fraction ([2]; 0.01 µM): -0.0015
- increase in dead-cell fraction ([2]; 0.03162 µM): -0.003
- increase in dead-cell fraction ([2]; 0.1 µM): -0.0037
- increase in dead-cell fraction ([2]; 0.3162 µM): 0.0003
- increase in dead-cell fraction ([2]; 1 µM): 0.0382
- increase in dead-cell fraction ([2]; 3.162 µM): 0.142
- increase in dead-cell fraction ([2]; 10 µM): 0.354
- increase in dead-cell fraction (THZ1; 0.0001 µM): -0.0269
- increase in dead-cell fraction (THZ1; 0.0003162 µM): 0.0089
- increase in dead-cell fraction (THZ1; 0.001 µM): -0.01
- increase in dead-cell fraction (THZ1; 0.003162 µM): -0.0015
- increase in dead-cell fraction (THZ1; 0.01 µM): 0.0153
- increase in dead-cell fraction (THZ1; 0.03162 µM): 0.188
- increase in dead-cell fraction (THZ1; 0.1 µM): 0.237
- increase in dead-cell fraction (THZ1; 0.3162 µM): 0.304
- increase in dead-cell fraction (THZ1; 1 µM): 0.398
- increase in dead-cell fraction ([3]; 0.0001 µM): -0.0003
- increase in dead-cell fraction ([3]; 0.0003162 µM): -0.0056
- increase in dead-cell fraction ([3]; 0.001 µM): -0.0037
- increase in dead-cell fraction ([3]; 0.003162 µM): 0.0067
- increase in dead-cell fraction ([3]; 0.01 µM): 0.0568
- increase in dead-cell fraction ([3]; 0.03162 µM): 0.537
- increase in dead-cell fraction ([3]; 0.1 µM): 0.662
- increase in dead-cell fraction ([3]; 0.3162 µM): 0.643
- increase in dead-cell fraction ([3]; 1 µM): 0.658
- increase in dead-cell fraction (BSJ-03-123; 0.001 µM): -0.0086
- increase in dead-cell fraction (BSJ-03-123; 0.003162 µM): 0.027
- increase in dead-cell fraction (BSJ-03-123; 0.01 µM): -0.004
- increase in dead-cell fraction (BSJ-03-123; 0.03162 µM): -0.0154
- increase in dead-cell fraction (BSJ-03-123; 0.1 µM): 0.0044
- increase in dead-cell fraction (BSJ-03-123; 0.3162 µM): -0.0026
- increase in dead-cell fraction (BSJ-03-123; 1 µM): -0.001
- increase in dead-cell fraction (BSJ-03-123; 3.162 µM): -0.0102
- increase in dead-cell fraction (BSJ-03-123; 10 µM): 0.284
- increase in dead-cell fraction (Flavopiridol; 0.0001 µM): 0.0131
- increase in dead-cell fraction (Flavopiridol; 0.0003162 µM): -0.0092
- increase in dead-cell fraction (Flavopiridol; 0.001 µM): -0.0132
- increase in dead-cell fraction (Flavopiridol; 0.003162 µM): -0.0012
- increase in dead-cell fraction (Flavopiridol; 0.01 µM): 0.0042
- increase in dead-cell fraction (Flavopiridol; 0.03162 µM): -0.0156
- increase in dead-cell fraction (Flavopiridol; 0.1 µM): 0.0246
- increase in dead-cell fraction (Flavopiridol; 0.3162 µM): 0.0926
- increase in dead-cell fraction (Flavopiridol; 1 µM): 0.288
- GR50, 72 h (Vorinostat): 1.57 µM
- GR50, 72 h [4]: 0.00294 µM
- GR50, 72 h [5]: 0.674 µM
- GR50, 72 h (AZD6738): 3.53 µM
- GR50, 72 h [6]: > 10 µM
- GR50, 72 h (BSJ-01-175): 0.00362 µM
- GR50, 72 h (AZD2014): 0.401 µM
- GR50, 72 h (Ipatasertib/GDC0068): 4.37 µM
- GR50, 72 h (AZD7762): 0.0152 µM
- GR50, 72 h (Tivantinib/ARQ197): 0.397 µM
- GR50, 72 h [7]: > 1 µM
